{"source": "patent US7041698B2", "about": "“Hepatitis C virus inhibitors” (Bristol-Myers Squibb Company, priority 2002, dated 2006)", "test_system": "HCV replicon in Huh7 cells", "experiment": "HCV replicon cell-based assay", "design": "species or system HCV strain 1B", "details": "Hepatitis C virus", "procedure,_shortened": "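Huh7 cells carrying a genotype 1b subgenomic replicon (NS3-NS5B, neo) treated 4 days at 37° C with compound (0.5% DMSO final). NS3 protease activity read in lysates with 10 μM FRET peptide (340/490 nm, kinetic), giving EC50. Confirmed by Taqman qRT-PCR of HCV RNA and a Renilla luciferase replicon.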", "note": "Read-outs that look alike come from different tables or passages of the source."}
{"smiles": "C=CC1C[C@]1(NC(=O)[C@@H]1C[C@@H](OC(=O)Nc2ccccc2-c2ccccc2)CN1C(=O)[C@@H](NC(=O)OC(C)(C)C)C(C)(C)C)C(=O)NS(=O)(=O)C1CC1", "note": "(stereo partly drawn) [Compound 8, BocNH-P3(t-BuGly)-P2(Hyp(O—CO(NH-biphen-2-yl)))-P1(1R,2S VinylAcca)—CONHSO2Cyclopropane]", "values": [{"measurement": "EC50", "setting": "Huh-7, 96 h, HCV replicon, 4 days, read-out: EC50 range", "value": "100 to 1000", "unit": "nM"}, {"measurement": "EC50", "setting": "Huh-7, HCV replicon, read-out: EC50 value in the replicon assay", "value": 284, "unit": "nM"}]}
